Source: PMC12136037, “Type II kinase inhibitors that target Parkinson’s disease–associated LRRK2” (Science Advances, 2025)
“And” between values parts separate entries of the source, which are not always exact repeats. Identical values can stand only once.

Assays:
[1] = biological target: T1, ~100 representative kinases (Homo sapiens, UniProt Q13557); experiment: DSF 100 kinase selectivity screen; format: binding; settings: Protein CAMK2D; average of three replicates;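 also: compound tested at 20 µM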
T1 construct: Recombinant protein kinase domains with a concentration of 2 μM
Procedure, shortened: (§1)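 Each kinase domain, at 2 μM, is mixed with 20 μM test compound and SYPRO Orange in Hepes (20 mM, pH 7.5) with 500 mM NaCl. Temperature is then raised at 3°C/min and fluorescence-monitored unfolding yields the melting temperature change, ΔTm in degrees Celsius.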

[2] = biological target: T2, ~100 representative kinases (Homo sapiens, UniProt P54762); experiment: DSF 100 kinase selectivity screen; format: binding; settings: Protein EPHB1; average of three replicates;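 also: compound tested at 20 µM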
T2 construct: Recombinant protein kinase domains with a concentration of 2 μM
T2 sequence (P54762 18-984): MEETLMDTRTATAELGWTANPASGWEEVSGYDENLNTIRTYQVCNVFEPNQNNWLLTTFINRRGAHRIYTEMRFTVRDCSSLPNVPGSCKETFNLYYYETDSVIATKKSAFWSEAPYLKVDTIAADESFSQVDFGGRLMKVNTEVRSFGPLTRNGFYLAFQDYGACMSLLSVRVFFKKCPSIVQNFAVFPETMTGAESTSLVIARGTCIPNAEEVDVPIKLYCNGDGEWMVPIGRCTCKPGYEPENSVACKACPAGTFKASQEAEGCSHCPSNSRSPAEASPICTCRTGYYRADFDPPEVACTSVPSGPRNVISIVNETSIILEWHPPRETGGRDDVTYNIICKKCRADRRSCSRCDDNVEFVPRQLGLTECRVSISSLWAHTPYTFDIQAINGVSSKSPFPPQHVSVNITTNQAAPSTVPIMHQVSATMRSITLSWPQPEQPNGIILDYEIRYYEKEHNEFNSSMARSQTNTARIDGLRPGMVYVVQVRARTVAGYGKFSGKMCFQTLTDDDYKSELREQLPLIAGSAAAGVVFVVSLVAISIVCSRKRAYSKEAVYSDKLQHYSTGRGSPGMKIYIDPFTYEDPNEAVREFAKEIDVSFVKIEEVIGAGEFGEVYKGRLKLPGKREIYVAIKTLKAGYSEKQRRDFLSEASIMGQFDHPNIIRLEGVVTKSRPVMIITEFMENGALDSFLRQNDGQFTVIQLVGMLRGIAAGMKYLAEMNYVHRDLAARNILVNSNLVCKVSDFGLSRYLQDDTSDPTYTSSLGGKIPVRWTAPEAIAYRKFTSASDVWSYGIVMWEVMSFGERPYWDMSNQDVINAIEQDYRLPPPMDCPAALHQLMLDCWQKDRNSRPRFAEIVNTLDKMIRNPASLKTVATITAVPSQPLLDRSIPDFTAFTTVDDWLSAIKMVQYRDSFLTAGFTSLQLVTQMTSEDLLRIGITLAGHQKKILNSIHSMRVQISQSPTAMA
Procedure, shortened: as §1

[3] = biological target: T3, LRRK2^RCKW (Homo sapiens, UniProt Q5S007); experiment: Biochemical LRRK2 activity assay (PhosphoSense, AssayQuant SOX peptide AQT0615); settings: for IC50: LRRK2^RCKW kinase activity, in vitro; for normalized response (LRRK2 activity): normalized to 0% (no kinase) and 100% (no inhibitor) control, two singlicate columns per compound
T3 construct: LRRK2 R1327 to E2527; His6-Z-tag (TEV cleavable) (N, cleaved yes); host or cells: Sf9 insect cells (baculovirus)
T3 sequence (Q5S007 1327-2527): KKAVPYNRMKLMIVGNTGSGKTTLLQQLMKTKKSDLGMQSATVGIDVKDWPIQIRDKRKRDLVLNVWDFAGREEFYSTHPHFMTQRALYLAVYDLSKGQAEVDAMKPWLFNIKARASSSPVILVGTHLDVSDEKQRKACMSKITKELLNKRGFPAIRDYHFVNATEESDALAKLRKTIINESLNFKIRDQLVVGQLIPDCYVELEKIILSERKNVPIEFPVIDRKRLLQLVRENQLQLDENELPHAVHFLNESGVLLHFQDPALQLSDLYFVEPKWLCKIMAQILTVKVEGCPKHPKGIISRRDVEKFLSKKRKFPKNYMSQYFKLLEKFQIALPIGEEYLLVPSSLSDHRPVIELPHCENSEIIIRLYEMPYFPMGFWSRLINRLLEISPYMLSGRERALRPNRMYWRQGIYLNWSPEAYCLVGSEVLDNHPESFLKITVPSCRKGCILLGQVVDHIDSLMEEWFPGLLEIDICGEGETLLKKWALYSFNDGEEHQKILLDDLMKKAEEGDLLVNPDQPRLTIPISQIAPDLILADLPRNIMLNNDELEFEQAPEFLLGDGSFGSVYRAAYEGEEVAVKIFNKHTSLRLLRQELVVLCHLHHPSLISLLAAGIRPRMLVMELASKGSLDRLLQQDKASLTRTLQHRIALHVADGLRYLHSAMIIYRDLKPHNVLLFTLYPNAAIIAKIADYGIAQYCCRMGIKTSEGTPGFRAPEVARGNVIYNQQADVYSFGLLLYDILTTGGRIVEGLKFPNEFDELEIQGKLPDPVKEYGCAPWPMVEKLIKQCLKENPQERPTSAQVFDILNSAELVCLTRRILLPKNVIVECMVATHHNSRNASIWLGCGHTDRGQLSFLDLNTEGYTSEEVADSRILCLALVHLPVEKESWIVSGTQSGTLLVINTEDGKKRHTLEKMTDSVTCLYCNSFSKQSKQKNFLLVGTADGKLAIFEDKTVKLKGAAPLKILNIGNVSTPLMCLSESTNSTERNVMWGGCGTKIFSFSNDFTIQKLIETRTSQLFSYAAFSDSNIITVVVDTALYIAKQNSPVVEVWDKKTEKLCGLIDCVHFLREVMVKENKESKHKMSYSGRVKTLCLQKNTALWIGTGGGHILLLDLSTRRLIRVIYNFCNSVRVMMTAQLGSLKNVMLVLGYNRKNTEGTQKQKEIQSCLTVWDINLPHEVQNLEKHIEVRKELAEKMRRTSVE
Experimental: Two wells per compound were used as 0% (without protein and compound) and 100% (without compound) control. […] The 0% control wells were filled with 10 μl of pure reaction buffer. With the ECHO, 5 nl of 100 mM ATP was pipetted into each well, the plates were centrifuged at 1500g for 2 min, and the reaction was incubated at room temperature for 4 hours. The fluorescence of the SOX-peptide after 360-nm excitation was measured at 487-nm emission with a PHERAstar plate reader (BMG Labtech). The IC50 values were calculated from a nonlinear regression of the log[inhibitor] versus the normalized response with GraphPad Prism 8 (www.graphpad.com/, RRID:SCR_002798).

T1 sequence (Q13557 whole entry, the tested form may be a part): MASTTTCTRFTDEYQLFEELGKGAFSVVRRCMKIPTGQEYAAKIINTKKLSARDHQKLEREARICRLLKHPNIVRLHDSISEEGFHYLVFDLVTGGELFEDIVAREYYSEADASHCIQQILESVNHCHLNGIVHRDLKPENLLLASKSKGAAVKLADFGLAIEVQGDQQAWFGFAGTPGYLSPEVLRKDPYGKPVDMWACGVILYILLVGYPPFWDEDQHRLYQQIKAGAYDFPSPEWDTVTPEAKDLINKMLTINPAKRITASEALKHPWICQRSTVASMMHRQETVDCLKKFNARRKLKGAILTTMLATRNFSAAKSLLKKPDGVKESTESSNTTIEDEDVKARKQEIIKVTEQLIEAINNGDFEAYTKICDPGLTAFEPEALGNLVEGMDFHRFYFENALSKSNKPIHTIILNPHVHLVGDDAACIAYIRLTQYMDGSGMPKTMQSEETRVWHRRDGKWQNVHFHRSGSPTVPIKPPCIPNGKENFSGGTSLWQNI

Compound | dTm [1] | dTm [2] | IC50 [3] | normalized response (LRRK2 activity) ([3]; log[inhibitor(mol)] -5.12494) | normalized response (LRRK2 activity) ([3]; log[inhibitor(mol)] -5.60206) | normalized response (LRRK2 activity) ([3]; log[inhibitor(mol)] -6.30103) | normalized response (LRRK2 activity) ([3]; log[inhibitor(mol)] -6.90309) | normalized response (LRRK2 activity) ([3]; log[inhibitor(mol)] -7.30103) | normalized response (LRRK2 activity) ([3]; log[inhibitor(mol)] -7.60206) | normalized response (LRRK2 activity) ([3]; log[inhibitor(mol)] -8.09691) | normalized response (LRRK2 activity) ([3]; log[inhibitor(mol)] -8.61979) | normalized response (LRRK2 activity) ([3]; log[inhibitor(mol)] -9.09691) | normalized response (LRRK2 activity) ([3]; log[inhibitor(mol)] -9.39794) | normalized response (LRRK2 activity) ([3]; log[inhibitor(mol)] -4.82391)
Cc1ccc(C(=O)Nc2ccc(CN3CCN(C)CC3)c(C(F)(F)F)c2)cc1C#Cc1c[nH]c2ncnc(N3CCOCC3)c12 [Compound 1] | 0.30 K | 4.85 K | 756 ± 20 nM | 7.718% and 4.844% | 24.5327% and 23.4304% | 59.5875% and 59.3462% | 87.2332% and 86.1364% | 105.83% and 97.719% | 93.8691% and 88.2314% | 93.7155% and 94.1323% | 97.5599% and 105.43% | 94.6588% and 101.816% | 98.0974% and 115.57% | –
O=C(Nc1ccc(F)cc1)C1(C(=O)Nc2cccc(-c3c[nH]c4ncnc(N5CCOCC5)c34)c2)CC1 [Compound 2] | 0.07 K | 3.27 K | 185 ± 10 nM | -9.6118% and -10.6428% | -5.033% and -3.426% | 19.2953% and 18.2204% | 61.3205% and 61.6605% | 88.0559% and 79.7364% | 100.582% and 98.3497% | 94.604% and 97.0225% | 106.516% and 96.1066% | 107.272% and 96.9347% | 103.198% and 102.243% | -3.585% and -13.2094%
O=C(Nc1cccc(-c2c[nH]c3ncnc(N4CCOCC4)c23)c1)c1cccn(-c2ccc(F)cc2)c1=O [Compound 4] | -0.31 K | 2.81 K | 167 ± 4 nM | – | – | 8.354% and 15.3302% | 58.3207% and 57.3774% | 76.6433% and 88.9388% | 88.7743% and 91.0393% | 93.6662% and 93.1068% | 96.9841% and 102.616% | 103.96% and 100.631% | 95.5418% and 116.272% | 9.714% and 10.3287%
Cc1cc(NC(=O)C2(C(=O)Nc3ccc(F)cc3)CC2)cc(-c2c[nH]c3ncnc(N4CCOCC4)c23)c1 [Compound 6] | 0.64 K | 1.49 K | 2150 ± 76 nM | 21.5574% and 22.3836% | 47.7852% and 45.6806% | 71.6605% and 77.9071% | 94.0943% and 97.1643% | 97.7557% and 95.1358% | 95.6902% and 98.0188% | 96.4251% and 96.973% | 102.476% and 68.784% | 101.485% and 101.404% | 101.487% and 73.6695% | 17.1176% and 19.6941%
O=C(Nc1cccc(-c2c[nH]c3ncnc(N4CCOCC4)c23)c1)C1(C(=O)Nc2cccc3c2CCC3)CC1 [Compound 11] | 0.60 K | -11.24 K | 989 ± 32 nM | 11.3407% and 2.1893% | 26.743% and 30.013% | 46.8199% and 60.7415% | 90.6286% and 91.37% | 100.861% and 98.8124% | 104.989% and 102.561% | 99.7669% and 103.043% | 100.861% and 99.0776% | 103.172% and 100.678% | 101.258% and 104.313% | 10.5992% and 8.534%
CCNc1nc(Nc2cc(F)c(C(=O)N3CCOCC3)cc2OC)ncc1C(F)(F)F [GNE-7915] | -0.06 K | 0.07 K | – | – | – | – | – | – | – | – | – | – | – | –
C[C@@H]1CN(c2cc(-c3n[nH]c4ccc(OC5(C)CC5)cc34)ncn2)C[C@H](C)O1 [MLi2] | 1.10 K | -0.37 K | – | – | – | – | – | – | – | – | – | – | – | –
Cn1cc(-c2c[nH]c3ncnc(N4CCOCC4)c23)cc1C#N [PFE-360] | 0.51 K | -0.08 K | – | – | – | – | – | – | – | – | – | – | – | –
Cc1ccc(C(=O)Nc2ccc(CN3CCN(C)CC3)c(C(F)(F)F)c2)cc1C#Cc1cnc2cccnn12 [Ponatinib, reference compound] | – | – | – | – | – | 56.5539% and 57.6737% | 39.5492% and 29.1129% | 59.9414% and 56.1669% | 77.794% and 52.662% | 99.8669% and 100.13% | 102.911% | 103.335% and 101.393% | 103.789% and 105.568% | –
